The values below come from publication PMC5494507, “γ‐Secretase inhibitors in cancer clinical trials are pharmacologically and functionally distinct” (EMBO Molecular Medicine, 2017).

The test system of one test is cNOTCH1‐4sub. Nature of the test: Average of cell-based IC50s on cNOTCH1-4sub in H4 cells. Further details: species or system human. Conditions: read-out: Average IC50s of each GSI on cNOTCH1‐4sub. As to the method:
Using these cell‐based γ‐secretase cleavage assays, we systematically investigated the substrate inhibition profile of BMS‐906024, MK‐0752, PF‐308414, RO4929097, Semagacestat, and DAPT. We treated H4 cells stably expressing cNOTCH1‐4sub with 4 pM to 10 μM of GSIs (Fig 5A and Table 2) and measured the Aβ‐like peptide secreted into the media.
For the cell‐based assay, all substrates contain a human NOTCH4 signal peptide sequence ([…]), amyloid β peptide (Aβ1–25/K16A) epitope tag followed by the juxtamembrane region (JMD) of the given substrate and a FLAG tag ([…]) at the COOH‐terminal. K16A mutant was created to decrease potential α‐secretase cleavage. The cDNAs were generated by gene synthesis conducted by Genscript. A schematic representation of the substrates is provided in Fig 4A, and sequences of the cDNAs and the proteins are provided in Appendix Fig S6. For clarity, these substrates are referred to as cell‐based assay substrates (e.g., NOTCH1 is cNOTCH1sub). Substrate cDNAs were cloned into pCDNA3.1 (Invitrogen, Carlsbad, CA, USA) for expression in H4 cells (ATCC, Manassas, VA).
H4 cells were cultured in Opti‐mem media (Thermo‐Fisher) supplemented with Hyclone 6% fetal bovine serum (GE, Logan, Utah, USA) and 1% penicillin/streptomycin (Life Technologies, Grand Island, NY, USA). pCDNA3.1 plasmids containing the substrate cDNAs were transfected into H4 cells using FuGENE HD reagent (Madison, WI, USA). Stable cell lines were established using G418 selection. […] Cells and conditioned media were used for WB, IP, and ELISA.
Sandwich ELISAs used for Aβ detection were performed as previously described (Murphy et al, 1999; Ran et al, 2014). Briefly, Aβ and Aβ‐like peptides in conditioned media were captured with Ab5 antibody and detected with horseradish peroxidase labeled mAb 4G8 (Biolegend). Synthetic Aβ1‐40 was used as standard. All ELISAs were developed with TMB substrate (KPL, Gaithersburg, Maryland, USA). Bis‐Tris precast gels (Biorad, Hercules, CA, USA) were used for all SDS–PAGE. Monoclonal anti‐FLAG M2 antibody (Sigma) and Aβ1‐16 antibody 6E10 (Covance) were used for Western blotting at 1:1,000 dilution. Anti‐CD74 In‐1 antibody (BD Bioscience, San Jose, CA, USA) was used for A20 cell lysate Western blotting at dilution of 1:1,000. MDA‐MB‐231 cell extracts were prepared by lysing cells in RIPA buffer containing protease and phosphatase inhibitors. The lysates were kept on ice for 30 min and vortexed every 10 min, and then centrifuged at 4°C for 10 min at 1,000 g. The supernatants were collected, and protein concentrations were determined by Bradford Assay. Pan‐NOTCH1 antibody (C‐20) (Santa Cruz Biotechnology) and cleaved NOTCH1 (Val1744) antibody ([…]) were used at 1:500 and 1:100 dilution in the test of endogenous NOTCH1 inhibition with β‐actin expression used as loading control. β‐actin antibody was used at 1:1,000 dilution (Sigma). Band intensities normalized for actin using densitometry analysis with ImageJ Software (NIH, USA).

The next test addresses T1, SPPL2b (Homo sapiens, UniProt Q8TCT7).
T1 construct: expressed in transfected cells
T1 sequence (Q8TCT7 26-592): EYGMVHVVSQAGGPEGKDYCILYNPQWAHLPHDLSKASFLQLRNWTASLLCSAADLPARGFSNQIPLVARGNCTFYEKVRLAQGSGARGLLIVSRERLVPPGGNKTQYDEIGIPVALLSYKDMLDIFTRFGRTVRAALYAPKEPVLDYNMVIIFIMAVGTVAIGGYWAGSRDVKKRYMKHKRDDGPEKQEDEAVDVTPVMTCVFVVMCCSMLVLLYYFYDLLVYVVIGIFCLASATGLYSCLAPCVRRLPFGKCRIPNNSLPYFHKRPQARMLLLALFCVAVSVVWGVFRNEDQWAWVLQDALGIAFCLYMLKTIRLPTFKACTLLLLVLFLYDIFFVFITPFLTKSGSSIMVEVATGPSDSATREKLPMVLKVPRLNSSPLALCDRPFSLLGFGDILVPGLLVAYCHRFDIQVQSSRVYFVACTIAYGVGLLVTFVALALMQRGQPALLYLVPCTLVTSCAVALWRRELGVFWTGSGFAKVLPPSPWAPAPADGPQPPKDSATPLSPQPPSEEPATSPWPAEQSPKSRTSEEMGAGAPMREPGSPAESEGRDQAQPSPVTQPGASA
Nature of the test: Cell-based SPPL2b cleavage assay, stable SPPL2b/FBA overexpressing HEK 293 cell line (ELISA). The note with it: 16 h. On the procedure:
It is known that SPP/SPPLs can be inhibited by select GSIs (Ran et al, 2015). Here, we tested the effect of various GSIs on the SPP/SPPL family members SPPL2a, SPPL2b, and SPP. We co‐transfected SPPLs with the BRI2 based chimeric SPP/SPPL substrate that we have referred to as FBA into HEK 293t cells. SPPL‐specific inhibitor (ZLL)2‐ketone was used as positive control. DAPT was not tested here as we and others have previously reported it had no effect on SPP activity at concentration up to 100 μM (Weihofen et al, 2003). […] Dose responses of BMS‐906024, RO4929097, and PF‐3084014 were performed with a similar strategy, but a stable SPPL2b/FBA overexpressing HEK 293 cell line was used instead of transient transfection (Fig 8B). […] Table 3 compares the GSIs’ potencies on γ‐secretase and SPPL2b. The average of IC50s on cNOTCH1sub, cNOTCH2sub, cNOTCH4sub, and APP was used as the GSI's potency on γ‐secretase.
SPPL2a, SPPL2b, SPP, and chimeric substrate FBA were generated as previously described (Ran et al, 2015). A20 cells (TIB‐208; ATCC, Manassas, VA, USA) were cultured in RPMI‐1640 medium (ATCC) supplied with 10% fetal bovine serum, 1% penicillin/streptomycin, and 0.05 mM 2‐mercaptoethanol (Life Technologies). Various concentrations of GSIs and (ZLL)2‐ketone as indicated in figures were applied to transfected HEK 293t cells at 70–90% confluence or A20 cells at a density of 5 × 10^5 cells/ml with fresh media in 48‐well format for 16 h. Cells and conditioned media were used for WB, IP, and ELISA.
Sandwich ELISAs used for Aβ detection were performed as previously described (Murphy et al, 1999; Ran et al, 2014). Briefly, Aβ and Aβ‐like peptides in conditioned media were captured with Ab5 antibody and detected with horseradish peroxidase labeled mAb 4G8 (Biolegend). Synthetic Aβ1‐40 was used as standard. All ELISAs were developed with TMB substrate (KPL, Gaithersburg, Maryland, USA). Bis‐Tris precast gels (Biorad, Hercules, CA, USA) were used for all SDS–PAGE. […] The supernatants were collected, and protein concentrations were determined by Bradford Assay. […]
(An ELISA detects its analyte on a solid surface through an enzyme-linked reagent.)

For a further test, the system named is rAPPC100sub. In words: Cell-free γ-secretase assay, rAPPC100sub (IP-MS), low-dose potentiation. It is filed as biochemical. The note with it: in vitro assay, recombinant substrate. An excerpt:
We next tested all GSIs on cAPPC100sub and full‐length APP stably overexpressing cells. […] The low‐dose potentiation of γ‐secretase cleavage was further mechanistically probed using in vitro assays with recombinant substrates and IP‐MS.

As for `CN1C(=O)[C@@H](NC(=O)[C@H](CCC(F)(F)F)[C@H](CCC(F)(F)F)C(N)=O)N=C(c2ccccc2)c2ccccc21` [BMS‐906024], the results for the IC50 in the test on cNOTCH1‐4sub and on SPPL2b were 0.57 nM and 28.3 nM, respectively. Also, the “concentration at which cleavage from rAPPC100sub was potentiated” value with rAPPC100sub is 0.03 nM.
As to `CCC[C@H](N[C@H]1CCc2cc(F)cc(F)c2C1)C(=O)Nc1cn(C(C)(C)CNCC(C)(C)C)cn1` [PF‐3084014], the IC50 with cNOTCH1‐4sub came to 0.66 nM; against SPPL2b, 1160 nM.
The matching figures for `CC(C)(C(=O)NCC(F)(F)C(F)(F)F)C(=O)N[C@@H]1C(=O)Nc2ccccc2-c2ccccc21` [RO4929097]: 6.48 nM and 72.8 nM.
For the molecule `CC(C)[C@H](O)C(=O)N[C@@H](C)C(=O)N[C@@H]1C(=O)N(C)CCc2ccccc21` [Semagacestat], in the test with cNOTCH1‐4sub, the IC50 was found to be 121 nM. Besides, the “concentration at which cleavage from rAPPC100sub was potentiated” value with rAPPC100sub stood at 0.16 nM.
